Data published in ChEMBL document CHEMBL6074620, “Discovery of a triphenylamine-based ligand that targets mitochondrial DNA G-quadruplexes and activates the cGAS-STING immunomodulatory pathway” (Eur J Med Chem, 2024).
The source made the active and inactive calls.

Experiments:
Mus musculus [1] = assay: In-vivo activation of cGAS-STING signaling pathway in female BALB/c mouse assessed as STING level in tumor at 2.5 mg/kg, sc by Western blot analysis; assay type: functional, organism-based
4T1 [2] = assay: Inhibition of tumor metastasis in mouse 4T1 cells assessed as reduction in wound healing after 24 hrs; assay type: functional, cell-based
Mus musculus [3] = assay: Immunostimulatory activity in female BALB/c mouse implanted with mouse 4T1 cells assessed as downregulation of M2 macrophages level 2.5 mg/kg, sc by flow cytometry analysis; assay type: functional, organism-based
Quadruplex DNA [4] = assay: Binding affinity to 3-terminal mt6363 DNA (unknown origin) assessed as dissociation constant by TAMRA-labeled G4 quenching assay; assay type: nucleic-acid assay
4T1 [5] = assay: Induction of mitochondrial damage in mouse 4T1 cells assessed as dispersion of fluorescence Mitotracker red incubated for 1 hrs and measured after 24 hrs by immunofluorescence analysis; assay type: functional, cell-based; conditions: time 25.0 hrs
4T1 [6] = assay: Inhibition of colony formation in mouse 4T1 cells assessed as decrease in number of colonies measured after 10 days of treatment by […]; assay type: functional, cell-based; conditions: dose <= 2.0 µM, time 10.0 day
4T1 [7] = assay: Activation of cGAS-STING signaling pathway in mouse 4T1 cells assessed as increase in IFN-beta level up to 5 uM by ELISA analysis; assay type: cell-based; conditions: filed as activator
Mus musculus [8] = assay: In-vivo activation of cGAS-STING signaling pathway in female BALB/c mouse assessed as TBK1 level in tumor at 2.5 mg/kg, sc by Western blot analysis; assay type: functional, organism-based
Mus musculus [9] = assay: In-vivo activation of cGAS-STING signaling pathway in female BALB/c mouse assessed as IRF3 level in tumor at 2.5 mg/kg, sc by Western blot analysis; assay type: functional, organism-based
4T1 [10] = assay: Activation of cGAS-STING signaling pathway in mouse 4T1 cells assessed as increase in TNF-alpha level up to 5 uM by ELISA analysis; assay type: cell-based; conditions: filed as activator
MDA-MB-231 = assay: Cytotoxicity against human MDA-MB-231 cells assessed as reduction in cell viability incubated for 24 hrs by CCK-8 assay; assay type: functional, cell-based; conditions: MDA-MB-231, 24 h
[11] = Toxicity in female BALB/c mouse implanted with mouse 4T1 cells assessed as change in lungs weight at 2.5 mg/kg, sc measured after 21 days by Hematoxylin-Eosin staining based analysis; assay type: organism-based; conditions: in vivo, 504 h, time 21 day
4T1 [12] = assay: Induction of ROS generation in mouse 4T1 cells assessed as increase green fluorescence by DCFH-DA staining based analysis; assay type: functional, cell-based
4T1 [13] = assay: Induction of mitochondrial damage in mouse 4T1 cells assessed as decrease in ND4 level at 5 uM in presence of NAC by qPCR analysis; assay type: functional, cell-based
[14] = Toxicity in female BALB/c mouse implanted with mouse 4T1 cells assessed as change in heart weight at 2.5 mg/kg, sc measured after 21 days by Hematoxylin-Eosin staining based analysis; assay type: organism-based; conditions: in vivo, 504 h, time 21 day
4T1 [15] = assay: Induction of mitochondrial damage in mouse 4T1 cells assessed as decrease in Dloop2 level at 5 uM in presence of DDC by qPCR analysis; assay type: functional, cell-based
4T1 [16] = assay: Induction of apoptosis in mouse 4T1 cells assessed as decrease in caspase-3 level at 5 uM by Western blotting analysis; assay type: functional, cell-based
4T1 [17] = assay: Induction of mitochondrial damage in mouse 4T1 cells assessed as decrease in ND4 level at 5 uM in presence of DDC by qPCR analysis; assay type: functional, cell-based
4T1 [18] = assay: Induction of mitochondrial damage in mouse 4T1 cells assessed as decrease in CytB level at 5 uM in presence of DDC by qPCR analysis; assay type: functional, cell-based
Mus musculus [19] = assay: Immunostimulatory activity in female BALB/c mouse implanted with mouse 4T1 cells assessed as change in CD4+ T cells in spleen 2.5 mg/kg, sc by flow cytometry; assay type: functional, organism-based
4T1 [20] = assay: Induction of mitochondrial damage in mouse 4T1 cells assessed as disappearance of picogreen incubated for 1 hrs and measured after 24 hrs by immunofluorescence analysis; assay type: functional, cell-based; conditions: time 25.0 hrs
Mus musculus [21] = assay: In-vivo activation of cGAS-STING signaling pathway in female BALB/c mouse assessed as increase in IFN-beta level at 2.5 mg/kg, sc by ELISA analysis; assay type: functional, organism-based
Mus musculus [22] = assay: Immunostimulatory activity in female BALB/c mouse implanted with mouse 4T1 cells assessed as upregulation of M1 macrophages level 2.5 mg/kg, sc by flow cytometry analysis; assay type: functional, organism-based
[23] = Drug localization in mitochondria of mouse 4T1 cells assessed as signal colocalization incubated for 30 mins by MitoTracker Green staining based analysis; assay type: ADME; conditions: 4t1, 0.5 h
4T1 [24] = assay: Activation of cGAS-STING signaling pathway in mouse 4T1 cells assessed as […] in TBK1 phosphorylation up to 5 uM by Western blot analysis; assay type: cell-based; conditions: filed as activator
Quadruplex DNA [25] = assay: Stabilization of fluorescently labelled G4-quadruplex mt6363 DNA (unknown origin) assessed as effect on thermal stability of DNA structure by measuring change in melting temperature at 1 uM by FRET melting assay; assay type: nucleic-acid assay
[26] = Toxicity in female BALB/c mouse implanted with mouse 4T1 cells assessed as change in body weight at 2.5 mg/kg, iv administered every 3 days for 2 weeks from day 7; assay type: organism-based; conditions: in vivo, 336 h
4T1 [27] = assay: Induction of apoptosis in mouse 4T1 cells assessed as decrease in PARP level at 5 uM by Western blotting analysis; assay type: functional, cell-based
Quadruplex DNA [28] = assay: Binding affinity to G4-quadruplex mt6363 DNA (unknown origin) assessed as melting temperature at 10 uM incubated for 2 hrs by fluorescence based analysis; assay type: nucleic-acid assay
4T1 [29] = assay: Cytotoxicity against mouse 4T1 cells assessed as reduction in cell viability incubated for 24 hrs by CCK-8 assay; assay type: functional, cell-based; conditions: 4T1, 24 h
Quadruplex DNA [30] = assay: Binding affinity to G4-quadruplex mt6363 DNA (unknown origin) at 10 uM by fluorescence based analysis; assay type: nucleic-acid assay

COc1ccc(N(c2ccc(/C=C/C3=[N+](C)c4ccc5ccccc5c4C3(C)C)cc2)c2ccc(OC)cc2)cc1.[I-]
active: Activity (Mus musculus [1]) | Activity (4T1 [2]) | Activity (Mus musculus [3]) | Activity (4T1 [5]) | Activity (4T1 [6]) Dose-dependent-effect | Activity (4T1 [7]) | Activity (Mus musculus [8]) | Activity (Mus musculus [9]) | Activity (4T1 [10]) | Activity (4T1 [12]) Dose-dependent-effect | Activity (4T1 [13]) | Activity (4T1 [15]) | Activity (4T1 [16]) | Activity (4T1 [17]) | Activity (4T1 [18]) | Activity (Mus musculus [19]) | Activity (4T1 [20]) | Activity (Mus musculus [21]) | Activity (Mus musculus [22]) | Activity (4T1 [24]) | Activity (4T1 [27]) | Activity (Quadruplex DNA [30])
1.9 µM: Kd (Quadruplex DNA [4]) | IC50 (4T1 [29])
28.5 °C: ΔTm (Quadruplex DNA [25])
46.2 °C: Tm (Quadruplex DNA [28])
Active: Drug uptake [23]
1.8 µM: IC50 (MDA-MB-231)
Non-toxic: Activity [11] | Activity [14] | Activity [26]
